Source: patent publication US20240181087A1, “COMPOSITION FOR CONTRAST IMAGING OF CANCER” (ASTELLAS PHARMA INC., priority 2021, published 2024)

How the values were obtained:
[1] = tested on: human glioblastoma cells U-251MG; assay: near-infrared fluorescence imaging after topical administration into tumor, human glioblastoma subcutaneous transplant model; assay type: in vivo; conditions: U-251MG glioblastoma, SCID mouse, 0.02 to 0.1 mL of 1 mg/mL, 1 hour after administration
Description: A human cancer cell transplant model mouse was created as follows: • (Head and neck/tongue cancer) To immunodeficient SCID mice (weight: 17 g to 23 g), about 10^6 human tongue cancer cells CAL27 (purchased from American Type Culture Collection: ATCC) were subcutaneously administered, and the resultant mice were grown for 49 days to create tumor models. • (Brain cancer/neuroblastoma) To immunodeficient SCID mice (weight: 17 g to 23 g), about 10^6 human neuroblastoma cells SH-SY5Y (purchased from ATCC) were subcutaneously administered, and the resultant mice were grown for 90 days to create tumor models. • (Brain cancer/glioblastoma) To immunodeficient SCID mice (weight: 17 g to 23 g), about 10^6 human glioblastoma cells U-251MG (obtained from European Collection of Authenticated Cell Cultures) were subcutaneously administered, and the resultant mice were grown for 90 days to create tumor models.
Subsequently, to the tumor of each of the mouse models, 0.02 to 0.1 mL of a saline containing the compound III (concentration of the compound III: 1 mg/mL) was topically administered, and fluorescence imaging was conducted transdermally with a near-infrared fluorescence camera (Fluobeam, manufactured by Fluoptics) (excitation wavelength: 780 nm, detection wavelength: 800 nm or more).

[2] = tested on: renal epithelial cell carcinoma; assay: near-infrared fluorescence imaging of kidney with tumor/pretumor induced with ferric nitrilotriacetate; assay type: in vivo, rat
Description: A kidney cancer […] model was created based on a method reported by Okada et al., (Okada et al., Jpn. Arch. Int. Med., 1982, 29, 485). Specifically, rats (280 g to 320 g) were bred after continuously intraperitoneally administering ferric nitrilotriacetate to the rats for 6 months, and thus, renal epithelial cell carcinoma was induced therein.
Each of the rats was anesthetized by intraperitoneally administering pentobarbital sodium salt, a saline containing the compound III was administered to the tail vein (dose of the compound: 0.75 mg/kg of the rat), and 30 minutes, 3 hours, or 24 hours after the administration, the rat was subjected to laparotomy to perform near-infrared fluorescence imaging of the kidney with a near-infrared fluorescence imaging device (PDE, manufactured by Hamamatsu Photonics K.K.) (FIG. 11). Besides, the kidney having been subjected to the near-infrared fluorescence imaging was excised from the body, and the cross section was subjected to near-infrared fluorescence imaging (FIG. 12). Three rats each were used at each of the above-described timings after the administration, and nine rats were used in total.
Besides, a specimen for microscopic observation was created through ethanol immobilization, section creation, hematoxylin/eosin staining for performing observation in bright field and near-infrared fluorescence (FIG. 13). […] Thus, tumor embedded in surrounding tissues could be detected.

RenCa cell = assay: near-infrared fluorescence imaging of abdominal cavity, peritoneal cancer mouse model (RenCa, intraperitoneal); assay type: in vivo; conditions: tail vein 12 nmol/kg; laparotomy immediately after administration
Description: Metastatic spontaneous renal cell carcinoma line from BALB/c mouse, RenCa cell (5×10^6 cells, purchased from CLS Cell Lines Service GmbH, Eppelheim, Germany) was intraperitoneally inoculated into a mouse (BALB/cCrSlc, SPF, female, 7 weeks old) and the resultant mouse was bred for 14 days to cause peritoneal cancer therein. The mouse (weight: about 20 g) was anesthetized by subcutaneous administration of ketamine (75 mg/kg) and medetomidine (1 mg/kg), and the compound III (12 nmol/kg weight) was administered through the tail vein. Immediately after the administration, laparotomy was conducted to perform near-infrared fluorescence imaging with a near-infrared fluorescence imaging device (pde-neo, manufactured by Hamamatsu Photonics K.K.).

[3] = tested on: mouse bladder cancer cell MB49; assay: near-infrared fluorescence observation of bladder after intravesical administration via the urethra, MB49 bladder cancer mouse model; assay type: in vivo; conditions: into bladder via urethra, after 30 minutes washed with saline five times
Description: Two bladder cancer mouse models (weight: about 20 g), having mouse bladder cancer cell MB49 transplanted in the bladder mucosa, and then grown for 3 weeks or 4 weeks, were used. To the bladder of each of the mice, 0.2 mL of a saline containing the compound III (concentration of the compound III: 0.075 mg/mL) was administered via the urethra, and after 30 minutes, the inside of the bladder was washed via the urethra with saline five times. Thereafter, the mouse was subjected to laparotomy under anesthesia by subcutaneous administration of ketamine (75 mg/kg) and medetomidine (1 mg/kg), and near-infrared fluorescence observation was performed with a near-infrared fluorescence imaging device (pde-neo, manufactured by Hamamatsu Photonics K.K.) (FIG. 3, right: near-infrared fluorescence image).
As a comparative example, a saline containing the compound III was administered to the bladder of a normal mouse (weight: about 20 g) via the urethra, and after 30 minutes, the inside of the bladder was washed via the urethra with saline five times. Thereafter, the mouse was subjected to laparotomy under anesthesia by subcutaneous administration of ketamine (75 mg/kg) and medetomidine (1 mg/kg), and near-infrared fluorescence observation was performed with a near-infrared fluorescence imaging device (pde-neo, manufactured by Hamamatsu Photonics K.K.) (FIG. 4). […]

[4] = ferric nitrilotriacetate rat, tail vein 0.75 mg/kg, excised kidney

COC1=C(/C=C/C2=[N+](CCC(=O)NCCCO[C@H]3[C@H]4O[C@H]5[C@H](O)[C@@H](O)[C@@H](O[C@H]6[C@H](O)[C@@H](O)[C@@H](O[C@H]7[C@H](O)[C@@H](O)[C@@H](O[C@H]8[C@H](O)[C@@H](O)[C@@H](O[C@H]9[C@H](O)[C@@H](O)[C@@H](O[C@H]%10[C@H](O)[C@@H](O)[C@@H](O[C@@H]([C@@H]3O)[C@@H](CO)O4)O[C@@H]%10CO)O[C@@H]9CO)O[C@@H]8CO)O[C@@H]7CO)O[C@@H]6CO)O[C@@H]5CO)c3ccc4ccccc4c3C2(C)C)CCC/C1=C\C=C1\N(CCC(=O)NCCCO[C@H]2[C@H]3O[C@H]4[C@H](O)[C@@H](O)[C@@H](O[C@H]5[C@H](O)[C@@H](O)[C@@H](O[C@H]6[C@H](O)[C@@H](O)[C@@H](O[C@H]7[C@H](O)[C@@H](O)[C@@H](O[C@H]8[C@H](O)[C@@H](O)[C@@H](O[C@H]9[C@H](O)[C@@H](O)[C@@H](O[C@@H]([C@@H]2O)[C@@H](CO)O3)O[C@@H]9CO)O[C@@H]8CO)O[C@@H]7CO)O[C@@H]6CO)O[C@@H]5CO)O[C@@H]4CO)c2ccc3ccccc3c2C1(C)C.[Cl-] [compound III, 3-(3-{[3-(cyclomaltoheptaose-21-O-yl)propyl]amino}-3-oxopropyl)-2-{(1E)-2-[(3E)-3-{(2E)-2-[3-(3-{[3-(cyclomaltoheptaose-21-O-yl)propyl]amino}-3-oxopropyl)-1,1-dimethyl-1,3-dihydro-2H-benzo[e]indol-2-ylidene]ethylidene}-2-methoxycyclohexa-1-en-1-yl]ethene-1-yl}-1,1-dimethyl-1H-benzo[e]indol-3-ium chloride]
retention inside the tumor (fluorescence imaging) [1]: retained inside the tumor
near-infrared fluorescence micro image of kidney tissue section ([2]; ferric nitrilotriacetate rat, near-infrared fluorescence microscope, section 3 hours after administration): strong near-infrared fluorescence was found locally in a non-neoplastic degeneration site, a pre-neoplastic degeneration site, and a neoplastic degeneration site
near-infrared fluorescence macro image of the surface of the kidney having tumor and pretumor ([2]; ferric nitrilotriacetate rat, tail vein 0.75 mg/kg, 30 minutes, 3 hours or 24 hours after administration): strong fluorescence was locally found in a dotted manner
near-infrared fluorescence image of kidney cross section: dotted fluorescence in renal medulla [2, 4]: not observed
near-infrared fluorescence image of kidney cross section: renal cortex [2, 4]: a site exhibiting strong fluorescence in a dotted manner was observed
aspect of dotted strong fluorescence in normal kidney ([2]; normal rat, tail vein 0.75 mg/kg): not observed
near-infrared fluorescence from peritoneal cancer site versus normal tissue (RenCa cell): stronger than that from a normal tissue
near-infrared fluorescence in cancer tissue of the bladder ([3]; MB49 bladder cancer mouse model, 0.2 mL 0.075 mg/mL): specifically observed
near-infrared fluorescence of normal tissue (bladder) ([3]; normal mouse): did not emit near-infrared fluorescence
